Data set [1] is described as follows: Inhibition of lipid peroxidation in egg yolk (unknown origin) preheated with compound and FeSO4 for 15 mins followed by TCA/TBA addition measured after 15 mins by absorbance based assay. Type of data set: functional, tissue-based.
Data set [2] concerns Mus musculus. As to the kind of experiment: Anti-MASH activity in HFD-fed CCl4-treated male C57BL/6 mouse assessed as reduction in hepatic triglyceride level at 150 mg/kg, po qd treated for 4 weeks by ELISA. Type of data set: functional, organism-based. A general note: ELISA stands for enzyme-linked immunosorbent assay.
Data set [3] can be described thus: Toxicity in male Sprague-Dawley rat model of CCl4-induced ALI assessed as body weight change at 100 mg/kg, IG qd pretreated with compound for 7 days followed by CCl4 administration after 2 hrs post-compound treatment measured after 16 hrs post-CCl4 injection. Type of data set: organism-based. The note with it: in vivo, po, 186 h.
The nature of data set [4]: Solubility in […] incubated for 10 mins. Type of data set: physicochemical.
Data set [5] is described as follows: AUC (0 to infinity) in overnight-fasted male Sprague-Dawley rat at 150 mg/kg, po measured up to 12 hrs by HPLC analysis. Type of data set: ADME, organism-based. The note with it: in vivo.
For data set [6], the system named is Rattus norvegicus. As to the kind of experiment: Hepatoprotective activity in male Sprague-Dawley rat model of CCl4-induced ALI assessed as restoration of serum LDH level at 100 mg/kg, IG qd pretreated with compound for 7 days followed by CCl4 administration after 2 hrs post-compound treatment measured after 16 hrs post-CCl4 injection. The format is functional, organism-based. The note with it: time 186.0 hrs.

The subject of data set [7] is Rattus norvegicus. The experiment in a line: Hepatoprotective activity in male Sprague-Dawley rat model of CCl4-induced ALI assessed as reduction in yellowing of liver at 100 mg/kg, IG qd pretreated with compound for 7 days followed by CCl4 administration after 2 hrs post-compound treatment measured after 16 hrs post-CCl4 injection. The conditions noted are these: time 186.0 hrs. Type of data set: functional, organism-based.

For data set [8], the system named is Mus musculus. The experiment in a line: Anti-MASH activity in HFD-fed CCl4-treated male C57BL/6 mouse assessed as reversal of hepatopancreas somatic indices at 150 mg/kg, po qd treated for 4 weeks. The format is functional, organism-based.
Data set [9] in a line: Antioxidant activity assessed as clearing rate incubated for 30 mins under dark condition by DPPH free radical scavenging assay. The format is functional. In general terms: DPPH is a stable violet radical that fades when it is reduced.
For data set [10], the system named is Mus musculus. The experiment in a line: Anti-MASH activity in HFD-fed CCl4-treated male C57BL/6 mouse assessed as reduction in hepatic cholesterol level at 150 mg/kg, po qd treated for 4 weeks by ELISA. The format is functional, organism-based.
In data set [11] the test system is Rattus norvegicus. As to the kind of experiment: Hepatoprotective activity in male Sprague-Dawley rat model of CCl4-induced ALI assessed as reduction in white granular fat in liver at 100 mg/kg, IG qd pretreated with compound for 7 days followed by CCl4 administration after 2 hrs post-compound treatment measured after 16 hrs post-CCl4 injection. Type of data set: functional, organism-based. The note with it: time 186.0 hrs.

The subject of data set [12] is Mus musculus. The experiment in a line: Anti-MASH activity in HFD-fed CCl4-treated male C57BL/6 mouse assessed as reduction in steatosis in liver at 150 mg/kg, po qd treated for 4 weeks by H and E/Oil red O staining based analysis. The format is functional, organism-based.
Data set [13] is described as follows: Apparent volume of distribution during terminal phase in overnight-fasted male Sprague-Dawley rat at 150 mg/kg, po measured up to 12 hrs by HPLC analysis. The conditions noted are these: in vivo, read-out: Vz/F. The format is ADME, organism-based.
Data set [14] in a line: Solubility in methanol incubated for 10 mins. Type of data set: physicochemical.
A short description of data set [15]: Solubility in ethyl acetate incubated for 10 mins. The format is physicochemical.
Data set [16] deals with Rattus norvegicus. As to the kind of experiment: Hepatoprotective activity in male Sprague-Dawley rat model of CCl4-induced ALI assessed as restoration of serum AST level at 100 mg/kg, IG qd pretreated with compound for 7 days followed by CCl4 administration after 2 hrs post-compound treatment measured after 16 hrs post-CCl4 injection. Type of data set: functional, organism-based. The conditions noted are these: time 186.0 hrs.

Data set [17] deals with Mus musculus. The experiment in a line: Anti-MASH activity in HFD-fed CCl4-treated male C57BL/6 mouse assessed as reduction in inflammation in liver at 150 mg/kg, po qd treated for 4 weeks by H and E/Oil red O staining based analysis. The format is functional, organism-based.
For data set [18], the system named is Rattus norvegicus. As to the kind of experiment: Hepatoprotective activity in male Sprague-Dawley rat model of CCl4-induced ALI assessed as reduction in roughened surface in liver at 100 mg/kg, IG qd pretreated with compound for 7 days followed by CCl4 administration after 2 hrs post-compound treatment measured after 16 hrs post-CCl4 injection. The format is functional, organism-based. The note with it: time 186.0 hrs.

Data set [19] is described as follows: Antioxidant activity assessed as inhibition of superoxide anion scavenging activity incubated for 5 mins in presence of pyrogallol. The format is functional.
Data set [20] in a line: Inhibition of lipid peroxidation in egg yolk (unknown origin) at 100 uM preheated with compound and FeSO4 for 15 mins followed by TCA/TBA addition measured after 15 mins by absorbance based assay relative to control. Type of data set: functional, tissue-based. Set-up: scale not given: the % may be the effect or the level left. The conditions noted are these: time 30.0 min.

The nature of data set [21]: Antioxidant activity assessed as inhibition of DPPH free radical scavenging activity incubated for 30 mins under dark condition. Type of data set: functional.
A short description of data set [22]: MRT (0 to infinity) in overnight-fasted male Sprague-Dawley rat at 150 mg/kg, po measured up to 12 hrs by HPLC analysis. The format is ADME, organism-based. The conditions noted are these: in vivo.
The subject of data set [23] is Mus musculus. As to the kind of experiment: Anti-MASH activity in HFD-fed CCl4-treated male C57BL/6 mouse assessed as reduction in hepatocyte ballooning in liver at 150 mg/kg, po qd treated for 4 weeks by H and E/Oil red O staining based analysis. The format is functional, organism-based.
The nature of data set [24]: Terminal half life in overnight-fasted male Sprague-Dawley rat at 150 mg/kg, po measured up to 12 hrs by HPLC analysis. Type of data set: ADME, organism-based. The conditions noted are these: in vivo, read-out: beta t1/2 (converted).
Data set [25] is described as follows: Tmax in overnight-fasted male Sprague-Dawley rat at 150 mg/kg, po measured up to 12 hrs by HPLC analysis. Type of data set: ADME, organism-based. The note with it: in vivo.
Data set [26] deals with Rattus norvegicus. As to the kind of experiment: Hepatoprotective activity in male Sprague-Dawley rat model of CCl4-induced ALI assessed as restoration of serum ALT level at 100 mg/kg, IG qd pretreated with compound for 7 days followed by CCl4 administration after 2 hrs post-compound treatment measured after 16 hrs post-CCl4 injection. The format is functional, organism-based. The note with it: time 186.0 hrs.

Data set [27] in a line: Cmax in overnight-fasted male Sprague-Dawley rat at 150 mg/kg, po measured up to 12 hrs by HPLC analysis. The format is ADME, organism-based. The note with it: in vivo.
In data set [28] the test system is Mus musculus. The experiment in a line: Anti-MASH activity in HFD-fed CCl4-treated male C57BL/6 mouse assessed as reduction in fat accumulation in liver at 150 mg/kg, po qd treated for 4 weeks by Oil red O staining based analysis. Type of data set: functional, organism-based.
Data set [29] is described as follows: Solubility in water incubated for 10 mins. Type of data set: physicochemical.
Data set [30] has as its system Rattus norvegicus. The experiment in a line: Hepatoprotective activity in male Sprague-Dawley rat model of CCl4-induced ALI assessed as reduction in acute fat deposition at 100 mg/kg, IG qd pretreated with compound for 7 days followed by CCl4 administration after 2 hrs post-compound treatment measured after 16 hrs post-CCl4 injection by oil red O staining based analysis. The note with it: time 186.0 hrs. Type of data set: functional, organism-based.

Data set [31] has as its system Rattus norvegicus. The experiment in a line: Hepatoprotective activity in male Sprague-Dawley rat model of CCl4-induced ALI assessed as reduction in vacuoles at 100 mg/kg, IG qd pretreated with compound for 7 days followed by CCl4 administration after 2 hrs post-compound treatment measured after 16 hrs post-CCl4 injection by H and E staining based analysis. Type of data set: functional, organism-based. The conditions noted are these: time 186.0 hrs.

A short description of data set [32]: Antioxidant activity assessed as clearing rate incubated for 5 mins in presence of pyrogallol by superoxide anion scavenging assay. The format is functional.
Data set [33] can be described thus: Apparent clearance during terminal phase in overnight-fasted male Sprague-Dawley rat at 150 mg/kg, po measured up to 12 hrs by HPLC analysis. Type of data set: ADME, organism-based. The note with it: in vivo, read-out: CLz/F (converted).
Data set [34] in a line: Toxicity in male Sprague-Dawley rat model of CCl4-induced ALI assessed as animal growth at 100 mg/kg, IG qd pretreated with compound for 7 days followed by CCl4 administration after 2 hrs post-compound treatment measured after 16 hrs post-CCl4 injection. Type of data set: organism-based. The note with it: in vivo, po, 186 h.
For data set [35], the system named is Rattus norvegicus. The experiment in a line: Hepatoprotective activity in male Sprague-Dawley rat model of CCl4-induced ALI assessed as reduction in dullness of liver margin at 100 mg/kg, IG qd pretreated with compound for 7 days followed by CCl4 administration after 2 hrs post-compound treatment measured after 16 hrs post-CCl4 injection. The format is functional, organism-based. The note with it: time 186.0 hrs.

The source of these data is ChEMBL document CHEMBL6182935, “Discovery of a Novel Silybin Derivative for the Treatment of Metabolic Dysfunction-Associated Steatohepatitis” (J Med Chem, 2025).

Molecules are shown by their SMILES. Converted amounts (≈) assume the structure as drawn. The source made the active and inactive calls. The rule behind the calls is not given here.

Regarding `COc1cc([C@@H]2Oc3cc([C@H]4Oc5cc(O)cc(O)c5C(=O)[C@@H]4O)ccc3OC2CO)ccc1O` (stereo not given in full), the IC50 – broadly, the concentration needed to halve the response being measured – in [1] was > 100 µM; in data set [19] it was > 200 µM; in data set [21] it was > 200 µM. The outcome with Mus musculus [2], in the data set on Rattus norvegicus [6], in the data set with Rattus norvegicus [7], in the data set with Mus musculus [8], with Mus musculus [10] and in the data set with Rattus norvegicus [11] was Active. Moreover, the outcome in the data set with Mus musculus [12], in the data set on Rattus norvegicus [16], in the data set on Mus musculus [17], in the data set on Rattus norvegicus [18], in the data set with Mus musculus [23] and in the data set with Rattus norvegicus [26] was Active. The result in the data set with Mus musculus [28], with Rattus norvegicus [30], with Rattus norvegicus [31] and in the data set with Rattus norvegicus [35] was Active. Further, the Activity result is “Non-toxic” in data set [3]; 47.2% in data set [9]; 39.6% in data set [20]; 34.6% in data set [32]; “Non-toxic” in data set [34]. Also, the solubility (commonly the dissolved amount per volume that the medium holds) in data set [4] was determined as 367 mg/mL (≈ 761 mM); in [14], 10.6 mg/mL (≈ 22 mM); in [15], 15.4 mg/mL (≈ 31.9 mM). Also, the AUC(0-inf) (as a rule, the area under the concentration-time curve extrapolated to infinity) in [5] was 494 ng·h/mL. For the same compound, in data set [13], the Vd/F was 447 L. Further, in [22], the mean residence time (MRT inf) – broadly, a mean duration of stay, worked out from the concentration-time curve – turned out to be 5.22 h. For the same compound, in [24], the half-life was 2.45 h. In addition, in data set [25], the Tmax – broadly, the time from dosing to the highest level – was 1.02 h. Also, in data set [27], the concentration peaked (Cmax) at 194 ng/mL. Also, the solubility at 10 min in data set [29] amounted to 0.14 mg/mL (≈ 0.29 mM). Moreover, in data set [33], the CL/F is 1250 mL/min.
On to `COc1cc(C2Oc3cc([C@H]4Oc5cc(O)cc(O)c5C(=O)[C@@H]4O)ccc3OC2CSSCC2Oc3ccc([C@H]4Oc5cc(O)cc(O)c5C(=O)[C@@H]4O)cc3O[C@H]2c2ccc(O)c(OC)c2)ccc1O` (single isomer, unassigned), for which the figures for the IC50 in data set [1], in [19] and in data set [21] were 28.7 µM, > 200 µM and 158 µM, respectively. Besides, the solubility in data set [4] is > 1000 mg/mL; in data set [14] it was 246 mg/mL (≈ 247 mM); in data set [15], 523 mg/mL (≈ 526 mM). The values for the Activity in data set [9], in data set [20] and in data set [32] were 53.9%, 75.2% and 40.6%, respectively. Moreover, the solubility at 10 min in data set [29] worked out at 0.19 mg/mL (≈ 0.191 mM).
Regarding `COc1cc([C@@H]2Oc3cc([C@H]4Oc5cc(O)cc(O)c5C(=O)[C@@H]4O)ccc3OC2CSC(C)=O)ccc1O` (stereo not given in full), the IC50 in [1] is 24 µM; in data set [19], > 200 µM; in data set [21] it was > 200 µM. Further, the solubility in data set [4], in [14] and in [15] was > 1000 mg/mL each time. Besides, the figures for the Activity in [9], in data set [20] and in data set [32] were 39.3%, 83.8% and 36.6%, respectively. The solubility at 10 min in data set [29] was found to be 0.3 mg/mL (≈ 0.555 mM).
